Laboratory results taken from US6287586A, “Pharmaceutical compositions of vanadium biguanide complexes and their use” (priority 1999, dated 2001).

Key:
[1] = human, in vivo, cited from earlier work
STZ-diabetic rats = experiment: Plasma glucose lowering in STZ-diabetic rats after i.p. administration (glucose oxidase method); type: in vivo, male Wistar rats; settings: for AUC (blood glucose): over 72 h after 0.12 mmol/kg i.p., group average; for rats with plasma glucose levels reduced to <9 mmol/L: 0.12 mmol/kg i.p. in 3% gum Arabic, STZ-diabetic rats
Method: Nineteen male Wistar rats weighing 190-220 g were obtained from the Animal Care Center at the University of British Columbia. Animals were acclimatized for a period of 7-14 days in our facility.
Animals were made diabetic with a single intravenous injection of streptozotocin (STZ) (Source: Sigma) at 60 mg/kg in 0.9% NaCl (1 mL/kg volume) (Source: BDH ) under light halothane (Halocarbon Laboratories) anaesthesia. The diabetic state was confirmed on the third day post-stz-administration with Ames brand Glucometer and Glucostix reading, and blood glucose levels of over 13 mM were categorized as diabetic.
On day seven post STZ-administration, the nineteen animals were divided randomly into four groups. These four groups received one of four treatments, including control. The control group received an equivalent volume of 3% gum Arabic carrier alone.
The gum arabic was prepared by dissolving 3 g of gum arabic in 100 mL of distilled water. This mixture was sealed and stored under refrigeration for 1 week before the experiment.
All drugs were injected intraperitoneally into the rats at a volume of 5 ml/kg in 3% gum Arabic. The dose of administration was 0.12 mmol/kg.
Animals were allowed free access to food.
Blood was collected from the tail into heparinized capillary tubes and centrifuged at 10,000 g for 15 minutes. Blood was collected in 50 μL aliquots in this manner prior to drug administration, and at 2, 4, 6, 8, 12, 16, 20, 24, 48 and 72 hours post administration.
The plasma was analyzed for glucose levels using Boehringer Mannheim Glucose Kits (glucose oxidase method).

STZ diabetic rats = settings: cited from earlier work
rat adipocytes = settings: in vitro, Nature 284:556-558 (1980); cited from earlier work
[2] = Sakurai et al. (1980); cited from earlier work
[3] = withdrawn drug; cited from earlier work

CN(C)C(=N)NC(=N)N [Metformin, 1,1-dimethylbiguanide]
dose excreted by the kidneys ([1]; 24 h): about 90% | oral dose excreted in the feces ([1]; po): Approximately 30% | acute lowering of plasma glucose (in words) (STZ-diabetic rats; IP 0.12 mmol/kg in 3% gum Arabic, over 72 hours): did not acutely lower plasma glucose levels | AUC (blood glucose) (STZ-diabetic rats): 1572.94 mmol/L/h

Bis(N^1,N^1 -dimethylbiguanidato)oxovanadium(IV) [VO(met)2]
rats with plasma glucose levels reduced to <9 mmol/L (STZ-diabetic rats): 40% | AUC (blood glucose) (STZ-diabetic rats): 1362.61 mmol/L/h | plasma glucose lowering, rat studies (in words) (STZ-diabetic rats; rat studies, summary statement): active in lowering plasma glucose

O=S(=O)([O-])[O-].[O]=[V+2] [vanadyl sulfate]
blood glucose and blood lipids (in words) (STZ diabetic rats; oral, STZ diabetic rats, McNeill et al.): lowers blood glucose and blood lipids | secondary complications of diabetes (in words) (STZ diabetic rats; oral, STZ diabetic rats, cataracts and cardiac dysfunction): prevents secondary complications of diabetes such as cataracts and cardiac dysfunction

[O]=[V+2] [vanadyl ion]
stimulation of glucose oxidation (in words) (rat adipocytes): insulin-like stimulation of glucose oxidation in rat adipocytes was due to the vanadyl ion

[O]=[V]([O-])([O-])[O-] [vanadate]
in vivo reduction (in words) [2]: reduced in vivo to vanadyl | elevated blood glucose (in words) (STZ diabetic rats; STZ rats, administered in drinking water, McNeill et al. 1985): decreased the elevated blood glucose | depression of cardiac performance (in words) (STZ diabetic rats; STZ rats, drinking water, McNeill et al. 1985): prevented the depression of cardiac performance

Bis(ethylmaltolato) oxovanadium(IV) [BEOV]
rats with plasma glucose levels reduced to <9 mmol/L (STZ-diabetic rats): 40% | AUC (blood glucose) (STZ-diabetic rats): 1197.30 mmol/L/h

[H]/N=C(/N)N/C(=N/[H])NCCc1ccccc1 [phenformin, 1-phenethylbiguanide]
side effects (in words) [3]: serious lactic acidosis side effects
